Measurements as given in publication PMC9516332 (Frontiers in Oncology, 2022).
Like-named read-outs stand apart in the source and are kept apart here.

Test system: 134 cancer cell lines
Experiment: Cell viability assay (ATPlite, 72 hours), IC50 on cancer cell line panel
[1] = Homo sapiens, A204, read-out: IC50 in cell proliferation assay
[2] = Homo sapiens, Kasumi 1, read-out: IC50 in cell proliferation assay
[3] = Homo sapiens, MDA-MB-453, read-out: IC50 in cell proliferation assay
[4] = Homo sapiens, MOLM-13, read-out: IC50 in cell proliferation assay
[5] = Homo sapiens, MV4-11, read-out: IC50 in cell proliferation assay
[6] = Homo sapiens, SK-N-SH, read-out: IC50 in cell proliferation assay

## CO[C@@H]1[C@H](N(C)C(=O)c2ccccc2)C[C@H]2O[C@]1(C)n1c3ccccc3c3c4c(c5c6ccccc6n2c5c31)C(=O)NC4 [midostaurin]
[1]
  IC50: 334 nM
[2]
  IC50: 320 nM
[3]
  IC50: 7640 nM
[4]
  IC50: 14 nM
[5]
  IC50: 15 nM
[6]
  IC50: 326 nM

## C=CC(=O)N1CCC[C@@H](n2nc(-c3ccc(Oc4ccccc4)cc3)c3c(N)ncnc32)C1 [ibrutinib]
Homo sapiens, 769-P, read-out: IC50 in cell proliferation assay
  IC50: 624 nM
Homo sapiens, 786-0, read-out: IC50 in cell proliferation assay
  IC50: 447 nM
[1]
  IC50: 29200 nM
Homo sapiens, A498, read-out: IC50 in cell proliferation assay
  IC50: 10100 nM
Homo sapiens, A-427, read-out: IC50 in cell proliferation assay
  IC50: 7610 nM
Homo sapiens, ACHN, read-out: IC50 in cell proliferation assay
  IC50: 675 nM
Homo sapiens, AN3-CA, read-out: IC50 in cell proliferation assay
  IC50: 12700 nM
Homo sapiens, AU565, read-out: IC50 in cell proliferation assay
  IC50: 42 nM
Homo sapiens, BT-474, read-out: IC50 in cell proliferation assay
  IC50: 28 nM
Homo sapiens, BT-549, read-out: IC50 in cell proliferation assay
  IC50: 17500 nM
Homo sapiens, BXPC-3, read-out: IC50 in cell proliferation assay
  IC50: 1410 nM
Homo sapiens, C-33-A, read-out: IC50 in cell proliferation assay
  IC50: 46 nM
Homo sapiens, CAL-27, read-out: IC50 in cell proliferation assay
  IC50: 374 nM
Homo sapiens, CCRF-CEM, read-out: IC50 in cell proliferation assay
  IC50: 8440 nM
Homo sapiens, DU-145, read-out: IC50 in cell proliferation assay
  IC50: 148 nM
Homo sapiens, DU-4475, read-out: IC50 in cell proliferation assay
  IC50: 20100 nM
Homo sapiens, Daoy, read-out: IC50 in cell proliferation assay
  IC50: 23100 nM
Homo sapiens, DoTc2-4510, read-out: IC50 in cell proliferation assay
  IC50: 209 nM
Homo sapiens, EOL1, read-out: IC50 in cell proliferation assay
  IC50: 347 nM
Homo sapiens, FaDu, read-out: IC50 in cell proliferation assay
  IC50: 95 nM
Homo sapiens, HCC827, read-out: IC50 in cell proliferation assay
  IC50: 236 nM
Homo sapiens, HCT-116, read-out: IC50 in cell proliferation assay
  IC50: 26400 nM
Homo sapiens, HEC-1B, read-out: IC50 in cell proliferation assay
  IC50: 294 nM
Homo sapiens, HL-60, read-out: IC50 in cell proliferation assay
  IC50: 29700 nM
Homo sapiens, HT, read-out: IC50 in cell proliferation assay
  IC50: 902 nM
Homo sapiens, Hs-578T, read-out: IC50 in cell proliferation assay
  IC50: 15100 nM
Homo sapiens, HuTu80, read-out: IC50 in cell proliferation assay
  IC50: 3660 nM
Homo sapiens, J82, read-out: IC50 in cell proliferation assay
  IC50: 25500 nM
Homo sapiens, Jurkat E6.1, read-out: IC50 in cell proliferation assay
  IC50: 10800 nM
Homo sapiens, K562, read-out: IC50 in cell proliferation assay
  IC50: 7320 nM
Homo sapiens, KATO III, read-out: IC50 in cell proliferation assay
  IC50: 1040 nM
Homo sapiens, KG-1, read-out: IC50 in cell proliferation assay
  IC50: 1360 nM
Homo sapiens, KLE, read-out: IC50 in cell proliferation assay
  IC50: 75 nM
Homo sapiens, KMS-11, read-out: IC50 in cell proliferation assay
  IC50: 27900 nM
Homo sapiens, KU812, read-out: IC50 in cell proliferation assay
  IC50: 2810 nM
[2]
  IC50: 7920 nM
Homo sapiens, LC-2-ad, read-out: IC50 in cell proliferation assay
  IC50: 1830 nM
Homo sapiens, LS174T, read-out: IC50 in cell proliferation assay
  IC50: 11600 nM
Homo sapiens, LS-411N, read-out: IC50 in cell proliferation assay
  IC50: 23000 nM
[3]
  IC50: 411 nM
Homo sapiens, MDA-MB-468, read-out: IC50 in cell proliferation assay
  IC50: 1040 nM
[4]
  IC50: 426 nM
Homo sapiens, MOLT-4, read-out: IC50 in cell proliferation assay
  IC50: 1880 nM
[5]
  IC50: 1010 nM
Homo sapiens, MeWo, read-out: IC50 in cell proliferation assay
  IC50: 29100 nM
Homo sapiens, NCCIT, read-out: IC50 in cell proliferation assay
  IC50: 5100 nM
Homo sapiens, NCI-H82, read-out: IC50 in cell proliferation assay
  IC50: 18400 nM
Homo sapiens, NCI-H661, read-out: IC50 in cell proliferation assay
  IC50: 123 nM
Homo sapiens, NCI-H716, read-out: IC50 in cell proliferation assay
  IC50: 1300 nM
Homo sapiens, NCI-H1650, read-out: IC50 in cell proliferation assay
  IC50: 110 nM
Homo sapiens, NCI-H1975, read-out: IC50 in cell proliferation assay
  IC50: 576 nM
Homo sapiens, NCI-H2228, read-out: IC50 in cell proliferation assay
  IC50: 29900 nM
Homo sapiens, OVCAR-3, read-out: IC50 in cell proliferation assay
  IC50: 200 nM
Homo sapiens, PFSK-1, read-out: IC50 in cell proliferation assay
  IC50: 25600 nM
Homo sapiens, RL95-2, read-out: IC50 in cell proliferation assay
  IC50: 32 nM
Homo sapiens, RPMI-7951, read-out: IC50 in cell proliferation assay
  IC50: 26900 nM
Homo sapiens, Rec1, read-out: IC50 in cell proliferation assay
  IC50: 0.511 nM
Homo sapiens, SK-BR-3, read-out: IC50 in cell proliferation assay
  IC50: 11 nM
Homo sapiens, SK-N-MC, read-out: IC50 in cell proliferation assay
  IC50: 1520 nM
[6]
  IC50: 26300 nM
Homo sapiens, SNU-5, read-out: IC50 in cell proliferation assay
  IC50: 17600 nM
Homo sapiens, SNU-C2B, read-out: IC50 in cell proliferation assay
  IC50: 300 nM
Homo sapiens, SU-DHL-6, read-out: IC50 in cell proliferation assay
  IC50: 12 nM
Homo sapiens, SUP-T1, read-out: IC50 in cell proliferation assay
  IC50: 1310 nM
Homo sapiens, SW48, read-out: IC50 in cell proliferation assay
  IC50: 21 nM
Homo sapiens, SW780, read-out: IC50 in cell proliferation assay
  IC50: 18700 nM
Homo sapiens, T98G, read-out: IC50 in cell proliferation assay
  IC50: 20600 nM
Homo sapiens, TCC-SUP, read-out: IC50 in cell proliferation assay
  IC50: 18100 nM
Homo sapiens, U2OS, read-out: IC50 in cell proliferation assay
  IC50: 10100 nM
Homo sapiens, U-118-MG, read-out: IC50 in cell proliferation assay
  IC50: 23300 nM
L-82, read-out: IC50 in cell proliferation assay
  IC50: 17700 nM
Rh30, read-out: IC50 in cell proliferation assay
  IC50: 25700 nM
